# Experimental data reported in patent US20020026052A1, “3-cyanoquinolines, 3-cyano-1,6-naphthyridines, and 3-cyano-1,7-naphthyridines as protein kinase inhibitors” (American Home Products Corporation, priority 2000, published 2002).
row,SMILES,melting point
1,"COc1cc(Nc2c(C#N)cnc3cc(-c4ccc(N5CCOCC5)nc4)ccc23)c(Cl)cc1Cl [Example 185, 4-(2,4-Dichloro-5-methoxyanilino)-7-[6-(4-morpholinyl)-3-pyridinyl]-3-quinolinecarbonitrile]",> 260 °C
2,"CN1CCN(Cc2ccc(-c3ccc4c(Nc5ccc(Sc6nccn6C)c(Cl)c5)c(C#N)cnc4c3)nc2)CC1 [Example 189, 4-{3-Chloro-4-[(1-methyl-1H-imidazol-2-yl)sulfanyl]anilino}-7-1-{5-[(4-methyl-1-piperazinyl)methyl]-2-pyridinyl}-3-quinolinecarbonitrile]",197 to 199 °C
3,"Cn1ccnc1Sc1ccc(Nc2c(C#N)cnc3cc(-c4ccc(N5CCOCC5)nc4)ccc23)cc1Cl [Example 190, 4-{3-Chloro-4-[(1-methyl-1H-imidazol-2-yl)sulfanyl]anilino}-7-[6-(4-morpholinyl)-3-pyridinyl]-3-quinolinecarbonitrile]",> 250 °C
4,"CCN1CCN(c2ccc(-c3ccc4c(Nc5ccc(Sc6nccn6C)c(Cl)c5)c(C#N)cnc4c3)cn2)CC1 [Example 195, 4-{3-Chloro-4-[(1-methyl-1H-imidazol-2-yl)sulfanyl]anilino}-7-[6-(4-ethyl-1-piperazinyl)-3-pyridinyl]-3-quinolinecarbonitrile]",254 to 256 °C
5,"CN1CCN(c2ccc(-c3ccc4c(Nc5ccc(Sc6nccn6C)c(Cl)c5)c(C#N)cnc4c3)cn2)CC1 [Example 196, 4-{3-Chloro-4-[(1-methyl-1H-irnidazol-2-yl)sulfanyl]anilino}-7-[6-(4-methyl-1-piperazinyl)-3-pyridinyl]-3-quinolinecarbonitrile]",227 to 279 °C
6,"CCN1CCN(c2ccc(-c3ccc4c(Nc5cc(OC)c(Cl)cc5Cl)c(C#N)cnc4c3)cn2)CC1 [Example 197, 4-(2,4-Dichloro-5-methoxyanilino)-7-[6-(4-ethyl-1-piperazinyl)-3-pyridinyl]-3-quinolinecarbonitrile]",264 to 266 °C
7,"COc1cc(Nc2c(C#N)cnc3cc(-c4ccc(N5CCN(C)CC5)nc4)ccc23)c(Cl)cc1Cl [Example 198, 4-(2,4-Dichloro-5-methoxyanilino)-7-[6-(4-methyl-1-piperazinyl)-3-pyridinyl]-3-quinolinecarbonitrile]",240 to 242 °C
8,"Cn1ccnc1Sc1ccc(Nc2c(C#N)cnc3cc(-c4cccc(CN5CCOCC5)n4)ccc23)cc1Cl [Example 199, 4-{3-Chloro-4-[(1-methyl-1H-imidazol-2-yl)sulfanyl]anilino}-7-[6-(4-morpholinylmethyl)-2-pyridinyl]-3-quinolinecarbonitrile]",232 to 234 °C
9,"CCN1CCN(Cc2cccc(-c3ccc4c(Nc5ccc(Sc6nccn6C)c(Cl)c5)c(C#N)cnc4c3)n2)CC1 [Example 201, 4-{3-Chloro-4-[(1-methyl-1H-imidazol-2-yl)sulfanyl]anilino}-7-{6-[(4-ethyl-1-piperazinyl)methyl]-2-pyridinyl}-3-quinolinecarbonitrile]",214 to 216 °C
10,"CN1CCN(Cc2cccc(-c3ccc4c(Nc5ccc(Sc6nccn6C)c(Cl)c5)c(C#N)cnc4c3)n2)CC1 [Example 202, 4-{3-Chloro-4-[(1-methyl-1H-imidazol-2-yl)sulfanyl]anilino}-7-{6-[(4-methyl-1-piperazinyl)methyl]-2-pyridinyl}-3-quinolinecarbonitrile]",157 to 159 °C
11,"Cn1ccnc1Sc1ccc(Nc2c(C#N)cnc3cc(-c4cc(CN5CCOCC5)ccn4)ccc23)cc1Cl [Example 203, 4-({3-Chloro-4-[(1-methyl-1H-imidazol-2-yl)sulfanyl]phenyl}amino)-7-[4-(4-morpholinylmethyl)-2-pyridinyl]-3-quinolinecarbonitrile]",205 to 207 °C
12,"CCN1CCN(Cc2ccnc(-c3ccc4c(Nc5ccc(Sc6nccn6C)c(Cl)c5)c(C#N)cnc4c3)c2)CC1 [Example 205, 4-({3-Chloro-4-[(1-methyl-iH-imidazol-2-yl)sulfanyl]phenyl}amino)-7-{4-[(4-ethyl-1-piperazinyl)methyl]-2-pyridinyl}-3-quinolinecarbonitrile]",150 to 153 °C
13,"CN1CCN(Cc2ccnc(-c3ccc4c(Nc5ccc(Sc6nccn6C)c(Cl)c5)c(C#N)cnc4c3)c2)CC1 [Example 206, 4-({3-Chloro-4-[(1-methyl-1H-imidazol-2-yl)sulfanyl]phenyl}amino)-7-{4-[(4-methyl-I -piperazinyl)methyl]-2-pyridinyl}-3-quinolinecarbonitrile]",208 to 210 °C
14,"Cn1ccnc1Sc1ccc(Nc2c(C#N)cnc3cc(-c4ncccc4CN4CCOCC4)ccc23)cc1Cl [Example 207, 4-({3-Chloro-4-[(1-methyl-1H-imidazol-2-yl)sulfanyl]phenyl}amino)-7-[3-(4-morpholinylmethyl)-2-pyridinyl]-3-quinolinecarbonitrile]",195 °C (dec.)
15,"CCN1CCN(Cc2cccnc2-c2ccc3c(Nc4ccc(Sc5nccn5C)c(Cl)c4)c(C#N)cnc3c2)CC1 [Example 208, 4-({3-Chloro-4-[(1-methyl-1H-imldazol-2-yl)sulfanyl]phenyl}amino)-7-{3-[(4-ethyl-1-piperazinyl)methyl]-2-pyridinyl}-3-quinolinecarbonitrile]",187 to 190 °C
16,"CN1CCN(Cc2cccnc2-c2ccc3c(Nc4ccc(Sc5nccn5C)c(Cl)c4)c(C#N)cnc3c2)CC1 [Example 209, 4-({3-Chloro-4-[(I -methyl-1H-imidazol-2-yl)sulfanyl]phenyl}amino)-7-{3-[(4-methyl-1-piperazinyl)methyl]-2-pyridinyl}-3-quinolinecarbonitrile]",217 to 220 °C
17,"Cn1ccnc1Sc1ccc(Nc2c(C#N)cnc3cc(-c4ccc(N5CCC(N6CCCC6)CC5)nc4)ccc23)cc1Cl [Example 210, 4-({3-Chloro-4-[(1-methyl-H-imidazol-2-yl)sulfanyl]phenyl}amino)-7-{6-[4-(1-pyrrolidinyl)-1-piperidinyl]-3-pyridinyl}-3-quinolinecarbonitrile]",230 °C (dec.)
18,"COCCN(C)c1ccc(-c2ccc3c(Nc4ccc(Sc5nccn5C)c(Cl)c4)c(C#N)cnc3c2)cn1 [Example 212, 4-({3-Chloro-4-[(1-methyl-1H-imidazol-2-yl)sulfanyl]phenyl}amino)-7-{6-[(2-methoxyethyl) (methyl)amino]-3-pyridinyl}-3-quinolinecarbonitrile]",224 to 226 °C
19,"CCOC(=O)C1CCN(c2ccc(-c3ccc4c(Nc5ccc(Sc6nccn6C)c(Cl)c5)c(C#N)cnc4c3)cn2)CC1 [Example 213, Ethyl 1-{5-[4-({3-chloro-4-[(1-methyl-iH-imidazol-2-yl)sulfanyl]phenyl}amino)-3-cyano-7-quinolinyl]-2-pyridinyl}-4-piperidinecarboxylate]",253 to 255 °C
20,"Cn1ccnc1Sc1ccc(Nc2c(C#N)cnc3cc(-c4ccc(N5CCC(O)CC5)nc4)ccc23)cc1Cl [Example 214, 4-({3-Chloro-4-[(1-methyl-1H-imidazol-2-yl)sulfanyl]phenyl}amino)-7-[6-(4-hydroxy-1-piperidinyl)-3-pyridinyl]-3-quinolinecarbonitrile]",178 to 180 °C
